According to patent publication US10370378B2, “Treatment of sleep disorders” (Evotec International GmbH, priority 2007, dated 2019):

Tests used:
[1] = Example 2: single and repeat dose pharmacokinetic, safety and pharmacodynamic study; assay type: in vivo, human; conditions: healthy volunteers, oral
Description: A single and repeat dose pharmacokinetic safety and pharmacodynamic study of the effects of the compound of formula (II) was conducted using healthy volunteers. The compound of formula (II) in free base form was administered orally in 1 mg, 1.5 mg, 2 mg and 2.5 mg doses via a hard gelatine capsule containing the compound in powder form.

[2] = test system: primary insomnia, subjects at least 65 years old; experiment: Example 4: placebo-controlled parallel group study, 7 nights dosing, elderly subjects with primary insomnia; assay type: in vivo, human; conditions: for Number of subjects with any event (%): number (percent); for Adjusted mean LPS / Adjusted mean TST / Adjusted mean WASO: PSG, average of nights 1, 6 and 7; for LPS % change from placebo / WASO % change from placebo: decrease; for TST % change from placebo: increase
Description: A randomized, double-blind, placebo-controlled parallel group design was used to assess the hypnotic efficacy of 1.5 mg and 2.5 mg doses of the compound of formula (II) following 7 nights dosing using 149 subjects. The study was conducted in 20 sleep laboratories in the United States using both objective and subjective measures. PSG data was collected on nights 1, 6 and 7 and results are based on the mean data from these three nights. The compound of formula (II) was administered in free base form as a powder in a capsule.
The subjects were males and females at least 65 years old with a documented diagnosis of primary insomnia (DSM-IV criteria). These subjects' typical bed time was between 9 pm and 1 am with at least 7 hours in bed. These subjects reported five nights or more in seven days with TST of not more than 6.5 hours with at least 7 hours in bed. […] On screening using PSG for 2 nights, mean TST was 240-420 minutes. Mean latency in Multiple Sleep Latency Test (MSLT) was at least 5.5 minutes and not more than 14 minutes.
PSG was used to obtain TST (average of nights 1, 6 and 7). The daytime function (day 8) was measured using Psychomotor Vigilance Task (PVT), MSLT (MSLT Clinical Guidelines; Sleep, 1(3): 260-276 (1992)), Karolinska Sleepiness Scale (KSS); and objective measures Rey Auditory Verbal Learning Test (RAVLT) (day 8) (assessed 30±10 minutes after lights-on). Sleep architecture, subject reported sleep variables and categorical rating of sleep quality and safety endpoints including the Benzodiazepine Withdrawal Questionnaire were also determined.

[3] = 1.5 mg and 2.5 mg, across 7 nights

CN(C)Cc1nc(-c2ncn3c2CN(C)C(=O)c2c(Cl)cccc2-3)no1 [compound of formula (II), 7-chloro-3-(5-dimethylaminomethyl-[1,2,4]oxadiazol-3-yl)-5-methyl-4,5-dihydro-imidazo[1,5-a][1,4]benzodiazepine-6-one]
effect of food on the extent of absorption [1]: little or no effect | pharmacokinetic profile on day 14 after repeat dosing compared to day 1 [1]: no significant differences | increase of mean TST compared to placebo ([2]; 1.5 mg): 30.9 min | Dizziness, number of subjects (%) ([2]; 1.5 mg (n = 53)): 3 (5.7) | Headache, number of subjects (%) ([2]; 1.5 mg (n = 53)): 5 (9.4) | Somnolence, number of subjects (%) ([2]; 1.5 mg (n = 53)): 1 (1.9) | Number of subjects with any event (%) ([2]; 1.5 mg (n = 53)): 15 (28.3) | safety and tolerability ([2]; 1.5 mg and 2.5 mg doses, elderly): safe and well-tolerated | sTST [2, 3]: significant increase | sWASO [2, 3]: significant decrease | subject-reported sleep onset latency [2, 3]: significant reduction | Adjusted mean LPS ([2]; 1.5 mg): 30.5 min | Adjusted mean TST ([2]; 1.5 mg): 369.5 min | Adjusted mean WASO ([2]; 1.5 mg): 86.2 min | LPS % change from placebo ([2]; 1.5 mg): 34% | WASO % change from placebo ([2]; 1.5 mg): 15% | total wake time hour by hour ([2]; 1.5 mg, each hour up to hour 6): significantly reduced | TST % change from placebo ([2]; 1.5 mg): 9% | WASO in the second half of the night (5-8 hours after lights out) ([2]; 2.5 mg): significant decrease | increase of mean TST compared to placebo ([2]; 2.5 mg): 56.4 min | Dizziness, number of subjects (%) ([2]; 2.5 mg (n = 52)): 5 (9.6) | Headache, number of subjects (%) ([2]; 2.5 mg (n = 52)): 3 (5.8) | Somnolence, number of subjects (%) ([2]; 2.5 mg (n = 52)): 6 (11.5) | Number of subjects with any event (%) ([2]; 2.5 mg (n = 52)): 19 (36.5) | Adjusted mean LPS ([2]; 2.5 mg): 26.5 min | Adjusted mean TST ([2]; 2.5 mg): 395 min | Adjusted mean WASO ([2]; 2.5 mg): 65.3 min | LPS % change from placebo ([2]; 2.5 mg): 43% | WASO % change from placebo ([2]; 2.5 mg): 36% | TWT hour by hour ([2]; 2.5 mg, every hour except hour 7): significantly reduced | TST % change from placebo ([2]; 2.5 mg): 17% | residual sedation, subject reported ([2]; 30 minutes post wake time (approximately 9 hours post dose)): no residual sedation | KSS (subjective) versus placebo ([2]; day 8): no significant difference | MSLT average sleep latency over all timepoints (2, 4, 6, 8 & 10 hours post wake time) ([2]; day 8, daytime function): increased | Benzodiazepine Withdrawal Questionnaire versus placebo ([2]; either dose): No significant difference | PVT or RAVLT versus placebo ([2]; either dose, day 8): no significant differences | sleep architecture (PSG) ([2]; human, in vivo): generally preserved sleep architecture | subjective sleep quality ([2]; over all 7 nights of dosing): sustained improvement
